From ChEMBL document CHEMBL4406898, “Dual mode of binding of anti cancer drug epirubicin to G-quadruplex [d-(TTAGGGT)]4 containing human telomeric DNA sequence induces thermal stabilization” (Bioorg Med Chem, 2019)
Active and inactive are the calls of the source. The calls are words filed in the database; no cut-off is given here.

How the values were obtained:
Quadruplex DNA [1] = test: Binding affinity to human telomeric 7 G-quadruplex DNA assessed as melting temperature compound:DNA ratio of 2:0 to 4:0 by CD spectroscopy analysis; format: nucleic-acid assay
Quadruplex DNA [2] = test: Binding affinity to human telomeric 7 G-quadruplex DNA assessed as binding constant Kb1 in 100 mM KCl by fluorescence spectral analysis; format: nucleic-acid assay
Quadruplex DNA [3] = test: Binding affinity to human telomeric 7 G-quadruplex DNA assessed as delta Tm2 compound:DNA ratio of 2:0 by CD spectroscopy analysis; format: nucleic-acid assay
Tetrahymena thermophila [4] = test: Binding affinity to Tetrahymena thermophila telomeric 22 G-quadruplex DNA assessed as binding constant Kb2
Quadruplex DNA [5] = test: Binding affinity to human telomeric 7 G-quadruplex DNA assessed as quenching constant by spectrofluorimetric analysis; format: nucleic-acid assay
Quadruplex DNA [6] = test: Binding affinity to human telomeric 7 G-quadruplex DNA assessed as fluorescence quenching at 7 uM in presence of water by fluorescence spectral analysis relative to control; format: nucleic-acid assay
Quadruplex DNA [7] = test: Binding affinity to human telomeric 7 G-quadruplex DNA assessed as fluorescence quenching at 7 uM in presence of 100 mM NaCl by fluorescence spectral analysis relative to control; format: nucleic-acid assay
Quadruplex DNA [8] = test: Binding affinity to human telomeric 7 G-quadruplex DNA assessed as binding constant Kb2 in 100 mM NaCl by fluorescence spectral analysis; format: nucleic-acid assay
Quadruplex DNA [9] = test: Binding affinity to human telomeric 7 G-quadruplex DNA assessed as hypochromic red shift at 7 uM in presence of water by fluorescence spectral analysis; format: nucleic-acid assay
Quadruplex DNA [10] = test: Binding affinity to human telomeric 7 G-quadruplex DNA assessed as hypochromic red shift by measuring difference in maximum absorption at 7 uM by absorption spectroscopy; format: nucleic-acid assay
Quadruplex DNA [11] = test: Binding affinity to human telomeric 7 G-quadruplex DNA assessed as melting temperature Tm2 compound:DNA ratio of 2:0 by CD spectroscopy analysis (reference value: 64.3 +/- 0.2 degreeC); format: nucleic-acid assay
Quadruplex DNA [12] = test: Binding affinity to human telomeric 7 G-quadruplex DNA assessed as fluorescence quenching at 7 uM by fluorescence spectral analysis; format: nucleic-acid assay
Quadruplex DNA [13] = test: Effect on parallel topology of human telomeric 7 G-quadruplex DNA assessed as reduction in negative band ellipticity at compound:DNA ratio of 4:0 by CD spectroscopy relative to control; format: nucleic-acid assay; parameters: scale not given: the % may be the effect or the level left
Tetrahymena thermophila [14] = test: Binding affinity to Tetrahymena thermophila telomeric 22 G-quadruplex DNA assessed as binding constant Kb1
Quadruplex DNA [15] = test: Binding affinity to human telomeric 7 G-quadruplex DNA assessed as fluorescence quenching at 7 uM measured at 591 nanometer by fluorescence spectral analysis relative to control; format: nucleic-acid assay
Quadruplex DNA [16] = test: Binding affinity to human telomeric 7 G-quadruplex DNA assessed as drug-DNA complex stoichiometry ratio of 2:1 at 7 uM by absorption spectroscopy; format: nucleic-acid assay
[17] = Self aggregation behaviour in phosphate buffer solution assessed as effect on absorption spectra at >10 uM by absorption spectroscopy; format: physicochemical
Quadruplex DNA [18] = test: Binding affinity to human telomeric 22 G-quadruplex DNA assessed as binding constant in presence of KCl by CD spectroscopy analysis; format: nucleic-acid assay
Quadruplex DNA [19] = test: Binding affinity to human telomeric 7 G-quadruplex DNA assessed as binding constant Kb1 in 100 mM NaCl by fluorescence spectral analysis; format: nucleic-acid assay
Quadruplex DNA [20] = test: Binding affinity to human telomeric 7 G-quadruplex DNA assessed as binding constant Kb2 in absence of KCl by fluorescence spectral analysis; format: nucleic-acid assay
Quadruplex DNA [21] = test: Binding affinity to human telomeric 7 G-quadruplex DNA assessed as binding constant Kb1 at 591 nanometer by spectrofluorimetric analysis; format: nucleic-acid assay
Quadruplex DNA [22] = test: Binding affinity to human telomeric 7 G-quadruplex DNA assessed as binding constant Kb2 in 100 mM KCl by fluorescence spectral analysis; format: nucleic-acid assay
Quadruplex DNA [23] = test: Binding affinity to human telomeric 7 G-quadruplex DNA assessed as drug-DNA complex stoichiometry ratio of 1:1 at 7 uM by absorption spectroscopy; format: nucleic-acid assay
Quadruplex DNA [24] = test: Binding affinity to human telomeric 7 G-quadruplex DNA assessed as melting temperature Tm1 compound:DNA ratio of 2:0 by CD spectroscopy analysis (reference value: 58.8 +/- 0.4 degreeC); format: nucleic-acid assay
Quadruplex DNA [25] = test: Binding affinity to human telomeric 7 G-quadruplex DNA assessed as hypochromic red shift at 7 uM by absorption spectroscopy relative to untreated control; format: nucleic-acid assay
Quadruplex DNA [26] = test: Binding affinity to human telomeric 7 G-quadruplex DNA assessed as delta Tm3 compound:DNA ratio of 2:0 by CD spectroscopy analysis; format: nucleic-acid assay
Quadruplex DNA [27] = test: Binding affinity to human telomeric 7 G-quadruplex DNA assessed as change in melting temperature compound:DNA ratio of 2:0 by CD spectroscopy analysis; format: nucleic-acid assay
Quadruplex DNA [28] = test: Effect on parallel topology of human telomeric 7 G-quadruplex DNA assessed as reduction in […] band ellipticity at 264 nm at compound:DNA ratio of 4:0 by CD spectroscopy relative to control; format: nucleic-acid assay; parameters: scale not given: the % may be the effect or the level left
Quadruplex DNA [29] = test: Binding affinity to human telomeric 7 G-quadruplex DNA incubated for 5 mins by UV-visible spectrophotometric analysis; format: nucleic-acid assay
Quadruplex DNA [30] = test: Binding affinity to human telomeric 7 G-quadruplex DNA assessed as fluorescence quenching at 7 uM measured at 559.5 nanometer by fluorescence spectral analysis relative to control; format: nucleic-acid assay
Quadruplex DNA [31] = test: Binding affinity to human telomeric 7 G-quadruplex DNA assessed as binding constant Kb2 in 50 mM of KCl by fluorescence spectral analysis; format: nucleic-acid assay
Quadruplex DNA [32] = test: Binding affinity to human telomeric 7 G-quadruplex DNA at compound:DNA ratio of 0.4 to 1.0 by spectrofluorimetric analysis; format: nucleic-acid assay
Quadruplex DNA [33] = test: Binding affinity to human telomeric 7 G-quadruplex DNA assessed as hypochromic red shift at 7 uM in presence of 100 to 150 mM K+ ion by fluorescence spectral analysis; format: nucleic-acid assay
Quadruplex DNA [34] = test: Binding affinity to human telomeric 7 G-quadruplex DNA assessed as binding constant Kb2 in water by fluorescence spectral analysis; format: nucleic-acid assay
Quadruplex DNA [35] = test: Binding affinity to human telomeric 7 G-quadruplex DNA assessed as binding constant Kb1 in absence of KCl by fluorescence spectral analysis; format: nucleic-acid assay
Quadruplex DNA [36] = test: Binding affinity to human telomeric 7 G-quadruplex DNA assessed as binding constant Kb1 in water by fluorescence spectral analysis; format: nucleic-acid assay
Quadruplex DNA [37] = test: Binding affinity to human telomeric 7 G-quadruplex DNA assessed as binding constant Kb1 at 559.5 nanometer by spectrofluorimetric analysis; format: nucleic-acid assay
Quadruplex DNA [38] = test: Binding affinity to human telomeric 7 G-quadruplex DNA by CD spectroscopy; format: nucleic-acid assay
Quadruplex DNA [39] = test: Binding affinity to human telomeric 7 G-quadruplex DNA assessed as stern-volmer quenching constant in compound:DNA ratio of 0.4 to 1.0 by spectrofluorimetric analysis; format: nucleic-acid assay
Quadruplex DNA [40] = test: Binding affinity to human telomeric 7 G-quadruplex DNA assessed as melting temperature compound:DNA ratio of 1:0 by CD spectroscopy analysis; format: nucleic-acid assay
Quadruplex DNA [41] = test: Binding affinity to human telomeric 7 G-quadruplex DNA assessed as melting temperature Tm1 compound:DNA ratio of 0:5 by CD spectroscopy analysis (reference value: 58.8 +/- 0.4 degreeC); format: nucleic-acid assay
Quadruplex DNA [42] = test: Binding affinity to human telomeric 22 G-quadruplex DNA assessed as binding constant in presence of NaCl by CD spectroscopy analysis; format: nucleic-acid assay
Quadruplex DNA [43] = test: Binding affinity to human telomeric 7 G-quadruplex DNA assessed as melting temperature Tm3 compound:DNA ratio of 0:5 by CD spectroscopy analysis; format: nucleic-acid assay
Quadruplex DNA [44] = test: Binding affinity to human telomeric 7 G-quadruplex DNA assessed as delta Tm1 compound:DNA ratio of 0:5 by CD spectroscopy analysis; format: nucleic-acid assay
Quadruplex DNA [45] = test: Binding affinity to human telomeric 7 G-quadruplex DNA at compound:DNA ratio of 2.3 to 6.1 by spectrofluorimetric analysis; format: nucleic-acid assay
Quadruplex DNA [46] = test: Binding affinity to human telomeric 7 G-quadruplex DNA assessed as binding constant Kb1 in 150 mM of KCl by fluorescence spectral analysis; format: nucleic-acid assay
Quadruplex DNA [47] = test: Binding affinity to human telomeric 7 G-quadruplex DNA assessed as fluorescence quenching at 7 uM in presence of 100 to 150 mM K+ ion by fluorescence spectral analysis relative to control; format: nucleic-acid assay
Quadruplex DNA [48] = test: Binding affinity to human telomeric 7 G-quadruplex DNA assessed as delta Tm1 compound:DNA ratio of 2:0 by CD spectroscopy analysis; format: nucleic-acid assay
Quadruplex DNA [49] = test: Binding affinity to human telomeric 7 G-quadruplex DNA assessed as binding constant Kb2 in 150 mM of KCl by fluorescence spectral analysis; format: nucleic-acid assay
Quadruplex DNA [50] = test: Binding affinity to human telomeric 7 G-quadruplex DNA assessed as stern-volmer quenching constant in compound:DNA ratio of 1.2 to 3.8 by spectrofluorimetric analysis; format: nucleic-acid assay
Quadruplex DNA [51] = test: Binding affinity to human telomeric 7 G-quadruplex DNA assessed as red shift in emission wavelength at 7 uM measured at 559.5 nanometer by fluorescence spectral analysis; format: nucleic-acid assay
Quadruplex DNA [52] = test: Binding affinity to human telomeric 7 G-quadruplex DNA assessed as red shift in emission wavelength at 7 uM measured at 591 nanometer by fluorescence spectral analysis; format: nucleic-acid assay
Quadruplex DNA [53] = test: Binding affinity to human telomeric 7 G-quadruplex DNA assessed as binding constant Kb1 in 50 mM of KCl by fluorescence spectral analysis; format: nucleic-acid assay
Quadruplex DNA [54] = test: Binding affinity to human telomeric 7 G-quadruplex DNA assessed as hypochromic red shift at 7 uM in presence of 100 mM NaCl by fluorescence spectral analysis; format: nucleic-acid assay
Quadruplex DNA [55] = test: Binding affinity to human telomeric 7 G-quadruplex DNA assessed as binding constant Kb2 at 559.5 nanometer by spectrofluorimetric analysis; format: nucleic-acid assay
Quadruplex DNA [56] = test: Binding affinity to human telomeric 7 G-quadruplex DNA assessed as binding constant Kb2 at 591 nanometer by spectrofluorimetric analysis; format: nucleic-acid assay
Quadruplex DNA [57] = test: Effect on parallel topology of human telomeric 7 G-quadruplex DNA assessed as reduction in negative band ellipticity at compound:DNA ratio of 3:0 by CD spectroscopy relative to control; format: nucleic-acid assay; parameters: scale not given: the % may be the effect or the level left

- Tm (Quadruplex DNA [1]): 70 °C
- Kb (Quadruplex DNA [2]): 2.3 ×10⁶ /M
- ΔTm (Quadruplex DNA [3]): 13.2 °C
- Kb (Tetrahymena thermophila [4]): 2.3 ×10⁵ /M
- Kq (Quadruplex DNA [5]): 7.5 ×10¹⁴ /M/s
- Activity (Quadruplex DNA [6]): 60%
- Activity (Quadruplex DNA [7]): 39%
- Kb (Quadruplex DNA [8]): 7.3 ×10⁴ /M
- deltaA (Quadruplex DNA [9]): 0.5 nm
- deltaA (Quadruplex DNA [10]): 9 nm
- Tm (Quadruplex DNA [11]): 77.5 °C
- Activity (Quadruplex DNA [12]): Active
- Activity (Quadruplex DNA [13]): 59%
- Kb (Tetrahymena thermophila [14]): 1.9 ×10⁶ /M
- Activity (Quadruplex DNA [15]): 92%
- Activity (Quadruplex DNA [16]): Active
- Activity [17]: Active
- Kb (Quadruplex DNA [18]): 3 to 3.6 ×10⁵ /M
- Kb (Quadruplex DNA [19]): 3.5 ×10⁴ /M
- Kb (Quadruplex DNA [20]): 0.24 ×10⁴ /M
- Kb (Quadruplex DNA [21]): 2.7 ×10⁶ /M
- Kb (Quadruplex DNA [22]): 4 ×10⁶ /M
- Activity (Quadruplex DNA [23]): Active
- Tm (Quadruplex DNA [24]): 70.4 °C
- Activity (Quadruplex DNA [25]): 47.6%
- ΔTm (Quadruplex DNA [26]): 26.3 °C
- ΔTm (Quadruplex DNA [27]): 15 °C
- Activity (Quadruplex DNA [28]): 18%
- Kb (Quadruplex DNA [29]): 2.3 ×10⁶ /M
- Activity (Quadruplex DNA [30]): 93%
- Kb (Quadruplex DNA [31]): 3.8 ×10⁶ /M
- Kb (Quadruplex DNA [32]): 2 ×10⁶ /M
- deltaA (Quadruplex DNA [33]): 8 to 16 nm
- Kb (Quadruplex DNA [34]): 53 ×10⁴ /M
- Kb (Quadruplex DNA [35]): 1.8 ×10⁴ /M
- Kb (Quadruplex DNA [36]): 8.4 ×10⁴ /M
- Kb (Quadruplex DNA [37]): 2 ×10⁶ /M
- Kb (Quadruplex DNA [38]): 1.9 ×10⁶ /M
- KSV (Quadruplex DNA [39]): 4.1 ×10⁵ /M
- Tm (Quadruplex DNA [40]): 65 °C
- Tm (Quadruplex DNA [41]): 68.1 °C
- Kb (Quadruplex DNA [42]): 2.5 ×10⁴ /M
- Tm (Quadruplex DNA [43]): 90.6 °C
- ΔTm (Quadruplex DNA [44]): 9.3 °C
- Kb (Quadruplex DNA [45]): 4.6 ×10⁵ /M
- Kb (Quadruplex DNA [46]): 1.3 to 1.9 ×10⁶ /M
- Activity (Quadruplex DNA [47]): 89%
- ΔTm (Quadruplex DNA [48]): 11.6 °C
- Kb (Quadruplex DNA [49]): 4.6 ×10⁶ /M
- KSV (Quadruplex DNA [50]): 1.1 ×10⁶ /M
- deltaA (Quadruplex DNA [51]): 8 nm
- deltaA (Quadruplex DNA [52]): 16 nm
- Kb (Quadruplex DNA [53]): 2.7 ×10⁶ /M
- deltaA (Quadruplex DNA [54]): 1 nm
- Kb (Quadruplex DNA [55]): 4.6 ×10⁵ /M
- Kb (Quadruplex DNA [56]): 3.8 ×10⁶ /M
- Activity (Quadruplex DNA [57]): 90%
SMILES: COc1cccc2c1C(=O)c1c(O)c3c(c(O)c1C2=O)C[C@@](O)(C(=O)CO)C[C@@H]3O[C@H]1C[C@H](N)[C@@H](O)[C@H](C)O1 [EPIRUBICIN]
